Measurements published in patent publication US20040097534A1, “Composition for the protection and regeneration of nerve cells containing berberine derivatives” (EUGENBIO INC., priority 2001, published 2004).
Several values for one entry are separate records, joined by “and”; a condition that tells them apart may be missing. Equal entries are not always repeated. Entries after “also recorded” stand apart in the source; their conditions may differ.

Columns and labels:
white rats = experiment: Toxicity and side effects in vivo
Experimental: The dosage for berberine can be varied depending upon known factors, such as age, sex, body weight, disease severity and health condition of the recipient. The daily dosage is commonly in the range of 100 to 150 mg/60 kg of body weight in two or three installments.

PC12 cells [1] = experiment: MTT assay, PC12 survival under dexamethasone (glucocorticoid) stress; format: cell-based, rat
Experimental: (§1) Cell injuries under condition of serum deprivation-induced stress and oxidative stress were measured by MTT assay. For MTT assay, Cells were seeded into N2 medium in an amount of 7.5×10^3 cells, and then a neurotoxin or a nerve growth factor was added thereto to differentiate the cells and then 0.1 volume of 4 mg/ml MTT was further added. The mixture was stored at 37° C. for 3-4 hours. After 100 μl of solubilization buffer was added to the mixture and then stored for 24 hours, O.D. values were measured by ELISA assay.
Glucocorticoids are hormones secreted from the adrenal glands, and involve in a variety of metabolic processes including glycometabolism. In particular, stress causes release of glucocorticoids to reduce cell divisions of neuronal stem cells in the brain and induce apoptosis of nerve cells. Therefore, PC12 cells were treated with dexamethasone, a glucocorticoid derivative, to examine the effect of berberine against apoptosis of nerve cells. 3 hours after treatment with berberine, dexamethasone (1) was added to a culture solution and incubated for 2 days to induce neuroregeneration (see, Table 5 and FIG. 5b).

[2] = tested on: neuromuscular junctions of hindlimb muscles; experiment: Regeneration of nerve endings at neuromuscular junctions after sciatic nerve crush; format: in vivo, white rat; settings: 4 weeks after operation, hindlimb muscle
Source text: In order to see whether berberine influences the regeneration of nerve endings in the neuromuscular junctions, 4 weeks after operation, hindlimb muscles connected to sciatic nerves were separated and cryosected. The neuromuscular junctions were stained using beta-tubulin isotypeIII and neurofilament, which are nerve markers.

sciatic nerves = experiment: Regeneration of crushed sciatic nerves (axons, myelin sheaths); format: in vivo, Sprague-Dawley white rat; settings: for number of axons longer than 300 μm / number of myelin sheaths longer than 200 μm: berberine intraperitoneal
Experimental: After a Sprague-Dawley white rat (male, weighing about 200 g) was anesthetized with pentobarbital (50 mg/kg), the left sciatic nerve was exposed at the sciatic notch. Subsequently, all nerve fibers except the artery in the sciatic nerve were cut, or both sides of nerve fibers were tied using #9 blood vessel suture, and then the center of the nerve fibers were cut using iridectomy scissors. In a crush model, nerve fibers were thoroughly crushed twice using a crush clip. After nerve fibers were injured, proximal stumps and distal stumps were obtained over various time intervals (6 hours, 1 day, 3 day, 7 day, 14 day, 21 day and 28 day), respectively, before testing. For comparison, the right sciatic nerve was used as a control group.
After a white rat was anesthetized, its sciatic nerves were exposed and crushed. PBS or berberine was intraperitoneally injected into the rat. 1 week, 2 weeks and 4 weeks after suturing, nerve regeneration was observed. The rat was perfused and then sciatic nerves were obtained from the distal stump. After the obtained sciatic nerves were cryosected to a thickness of 7-10 μm, cryosected sciatic nerves were double-stained using beta-tubulin isotypeIII (cy3, red), which is an axon marker, and MBP ([…], cy2, green) antibody, which is a differentiation (myelin) marker of Schwann cells. It was observed under a confocal microscope that axons (see, Table 11) were longer than 300 μm and myelin sheaths (see, Table 12) were longer than 200 μm (see, FIGS. 13 to 15, 19a and 19b).

PC12 cells [3] = experiment: MTT assay, PC12 survival under serum deprivation-induced stress; format: cell-based, rat; settings: for O.D.: 2 days; for Average (O.D. relative to RPMI): RPMI = 100%
Experimental: as §1
NGF, increasing cell survival and inducing cell differentiation, was used as a positive control. After the cells were treated with berberine (0.25˜3 μg/ml), the cells were cultured for 2 days to induce nerve regeneration (see, Table 3 and FIG. 5a).

[4] = tested on: nerve cells in CA1, dentate gyrus and entorhinal cortex; experiment: Animal model for dementia (ibotenic acid into entorhinal cortex), calbindin-positive neuron count; format: in vivo, rat
Experimental: After white rat brain was fixed with a stereotaxic frame, 1.5 μl (1 mg/ml) of ibotenic acid and PBS, or 1.5 μl (1 mg/ml) of berberine was injected into the entorhinal cortex region using a microinjector to prepare a model for dementia. […]
Brain was fixed with 4% paraformaldehyde and cryosected to a thickness of 40 μm, and then the cryosected brain was permeablized with 0.5% Triton X-100 for 20 minutes and blocked using 15% blocking serum for 2 hours. After reacting with anti-calbindin antibody at a temperature 4° C. for 16 hours and then further reacting with FITC-labeled secondary antibody or rhodamin (TRITC)-labeled secondary antibody for 1 hour, the cells were fixed on a slide before examining under a confocal microscope.
As an animal model for dementia, ibotenic acid was microinjected into the entorhinal cortex of adult rat brain using a stereotaxic frame.
First, an adult rat was anesthetized, and its head was fixed with a stereotaxic frame. Subsequently, 1.5 μl (1 mg/ml) of ibotenic acid was injected into the entorhinal cortex region to prepare a model for dementia, and then berberine was injected into the same site. 2 weeks after operation, brain tissue sections were counter-stained with hematocylin to examine apoptosis and protective effect. After fluorescence-staining the cells, regions used for cell count were represented as squares (FIG. 14). In addition, the cells were fluorescence-stained with calbindin antibody, a nerve-specific marker, to examine nerve cell survival (see, Tables 8 to 10, FIGS. 11 and 12).

[5] = N2 + dexamethasone + berberine 0.25 μg/ml
[6] = N2 + dexamethasone + berberine 1.5 μg/ml
[7] = N2 + dexamethasone + berberine 3 μg/ml
[8] = Ibotenic Acid + Berberine, 2 weeks after operation
[9] = berberine injected after ibotenic acid

Structure (SMILES): COc1ccc2cc3[n+](cc2c1OC)CCc1cc2c(cc1-3)OCO2 [Berberine, 7,8,13,13a-tetradihydro-9,10-dimethoxy-2,3-(methylenedioxy) berbinium]
- LD50 (white rats; intraperitoneally injected): 24.3 mg/kg
- acute toxicity (white rats; white rats): no acute toxicity
- side effects on liver functions (white rats; white rats): no side effects on liver functions
- Average (O.D. relative to dexamethasone alone) (PC12 cells [1]; [5]): 111%
- O.D. (PC12 cells [1]; [5]): 0.214
- Average (O.D. relative to dexamethasone alone) (PC12 cells [1]; [6]): 127%
- O.D. (PC12 cells [1]; [6]): 0.245
- Average (O.D. relative to dexamethasone alone) (PC12 cells [1]; [7]): 132%
- O.D. (PC12 cells [1]; [7]): 0.253
- cell survival rate increase (PC12 cells [1]; dexamethasone stress, 2 days): about 1.3 times
- regeneration of nerve endings / formation of neuromuscular junctions [2]: spread to all muscle fibers; also recorded: reached all muscle fibers to form neuromuscular junctions
- number of myelin sheaths longer than 200 μm, increase (sciatic nerves; 1 week): doubled
- effect on axonal growth and the regeneration of myelin sheaths (sciatic nerves; 1 week after operation): not great
- number of axons longer than 300 μm (sciatic nerves; 1 week, PBS = 14.5): 24.6
- number of myelin sheaths longer than 200 μm (sciatic nerves; 1 week, PBS = 16.5): 35
- number of axons longer than 300 μm (sciatic nerves; 2 weeks, PBS = 20.5): 32.3
- number of myelin sheaths longer than 200 μm (sciatic nerves; 2 weeks, PBS = 43): 88.6
- number of axons (neurites) longer than 300 μm, increase (sciatic nerves; 4 weeks): doubled
- number of myelin sheaths longer than 200 μm, increase (sciatic nerves; 4 weeks): 3 times
- O.D. (PC12 cells [3]; RPMI + berberine 0.25 μg/ml): 0.203
- Average (O.D. relative to RPMI) (PC12 cells [3]; RPMI + berberine 0.25 μg/ml): 121%
- O.D. (PC12 cells [3]; RPMI + berberine 1.5 μg/ml): 0.239
- Average (O.D. relative to RPMI) (PC12 cells [3]; RPMI + berberine 1.5 μg/ml): 142%
- O.D. (PC12 cells [3]; RPMI + berberine 3 μg/ml): 0.262
- Average (O.D. relative to RPMI) (PC12 cells [3]; RPMI + berberine 3 μg/ml): 156%
- cell survival rate versus control group (PC12 cells [3]; serum deprivation, berberine (1.5˜3 μg/ml elsewhere in the source)): 1.5 times
- cell number (%) relative to Ibotenic Acid, CA, average ([4]; Berberine alone): 311%
- cell number (%) relative to Ibotenic Acid, DG, average ([4]; Berberine alone): 204%
- cell number (%) relative to Ibotenic Acid, ENT, average ([4]; Berberine alone): 225%
- cell number relative to Ibotenic Acid average = 100, CA (individual animals #1-#3) ([4]; Berberine alone): 355 and 257 and 320
- cell number relative to Ibotenic Acid average = 100, DG (individual animals #1-#3) ([4]; Berberine alone): 229 and 189 and 195
- cell number relative to Ibotenic Acid average = 100, ENT (individual animals #1-#3) ([4]; Berberine alone): 237 and 208 and 229
- cell number, CA (individual animals #1-#3) ([4]; Berberine alone): 174 and 126 and 157
- cell number, CA, AVR ([4]; Berberine alone): 152.3
- cell number, DG (individual animals #1-#3) ([4]; Berberine alone): 421
- cell number, DG, AVR ([4]; Berberine alone): 375.3
- cell number, ENT (individual animals #1-#3) ([4]; Berberine alone): 173 and 152 and 167
- cell number, ENT, AVR ([4]; Berberine alone): 164
- cell number (%) relative to Ibotenic Acid, CA, average ([4]; Ibotenic Acid + Berberine): 278%
- cell number (%) relative to Ibotenic Acid, DG, average ([4]; Ibotenic Acid + Berberine): 190%
- cell number (%) relative to Ibotenic Acid, ENT, average ([4]; Ibotenic Acid + Berberine): 126%
- cell number relative to Ibotenic Acid average = 100, CA (individual animals #1-#3) ([4]; Ibotenic Acid + Berberine): 231 and 337 and 267
- cell number relative to Ibotenic Acid average = 100, DG (individual animals #1-#3) ([4]; Ibotenic Acid + Berberine): 221 and 157 and 191
- cell number relative to Ibotenic Acid average = 100, ENT (individual animals #1-#3) ([4]; Ibotenic Acid + Berberine): 129 and 122 and 127
- cell number, CA, AVR ([4]; Ibotenic Acid + Berberine): 136.3
- cell number, DG, AVR ([4]; Ibotenic Acid + Berberine): 348.7
- cell number, ENT, AVR ([4]; Ibotenic Acid + Berberine): 92
- cell number, CA (individual animals #1-#3) [4, 8]: 113 and 165 and 131
- cell number, DG (Dentate Gyrus) (individual animals #1-#3) [4, 8]: 406 and 289 and 351
- cell number, ENT (Entorhinal Cortex) (individual animals #1-#3) [4, 8]: 94 and 89 and 93
- survival of calbindin-positive neurons in the entorhinal cortex [4, 9]: somewhat increased
- survival rates of granule cells in the dentate gyrus regions, increase [4, 9]: doubled; also recorded: two times
- survival rates of pyramidal cells in the CA1 region, increase [4, 9]: 2.5 times
